From patent publication EP1561465A2, “Methods of use of fluoroquinolone compounds against bacteria” (LG Life Sciences, Ltd., priority 1999, dated 2001)
In brackets after ≈: the same amount, converted by molar mass. Like-named read-outs stand apart in the source and are kept apart here.

Assays:
Format in all cases: cell-based
[1] = test system: Yersinia enterocolitica; assay: MIC by agar dilution (NCCLS M7-A4), 288 enteropathogenic isolates, gemifloxacin and 15 other antimicrobials; settings: Yersinia enterocolitica N= 22
[2] = test system: Haemophilus influenzae; assay: MIC by broth microdilution (NCCLS), dried MicroScan panels, clinical isolates 1998-1999; settings: for MIC90: Haemophilus influenzae
[3] = test system: Streptococcus pyogenes; assay: MIC by NCCLS reference broth microdilution, 450 respiratory tract pathogens; settings: Streptococcus pyogenes
[4] = test system: Staphylococcus aureus; assay: microbe, parasite or virus in culture
[5] = test system: Moraxella catarrhalis; assay: MIC by two-fold serial agar dilution, Sensitivity Disk agar-N (Kitasato isolates); settings: Moraxella catarrhalis (22)
[6] = test system: Staphylococcus aureus; assay: MIC by NCCLS reference broth microdilution, 450 respiratory tract pathogens
[7] = test system: Enterococcus faecium; assay: MIC by NCCLS broth microdilution, 1100 Japanese clinical isolates 1997-1998; settings: for MIC: Enterococcus faecium
[8] = test system: Proteus mirabilis; assay: as above
[9] = test system: Staphylococcus aureus; assay: MIC by agar dilution (NCCLS), 411 isolates Buenos Aires 1998-99; settings: for MIC90: Staphylococcus aureus
[10] = test system: Klebsiella oxytoca; assay: MIC by NCCLS broth microdilution, 1100 Japanese clinical isolates 1997-1998; settings: Klebsiella oxytoca (n=40)
[11] = 24 h, read-out: MIC (mg/L) Range
[12] = Haemophilus influenzae (300 isolates)
[13] = erythromycin resistant C phenotype [MLSB] (n = 20)
[14] = erythromycin resistant I phenotype [MLSB] (n = 20)
[15] = β-lactamase positive and erythromycin resistant (n = 10)
[16] = S. aureus, Methicillin resistant (n = 14)
[17] = S. aureus, Methicillin susceptible (n = 66)

Structure (SMILES): Cc1c(F)c(N2CCNC(C)C2)cc2c1c(=O)c(C(=O)O)cn2C1CC1 (stereo not drawn) [Grepafloxacin, grepafloxacin]
- MIC [1, 11]: 0.015 to 0.25 mg/L (≈ 0.0417 to 0.696 µM)
- MIC ([1]; read-out: MIC (mg/L) 50%): 0.03 mg/L (≈ 0.0835 µM)
- MIC ([1]; read-out: MIC (mg/L) 90%): 0.03 mg/L (≈ 0.0835 µM)
- MIC50 [2, 12]: ≤ 0.015 µg/mL
- MIC Range [2, 12]: ≤0.015 to 0.12 µg/mL
- MIC90 [2, 12]: ≤ 0.015 µg/mL
- MIC90 ([2]; β-lactamase negative (234)): ≤ 0.015 µg/mL
- MIC90 ([2]; β-lactamase positive (66)): 0.03 µg/mL (≈ 0.0835 µM)

Structure (SMILES): C[C@H]1COc2c(N3CCN(C)CC3)c(F)cc3c(=O)c(C(=O)O)cn1c23 [Levofloxacin, levofloxacin]
- MIC ([3]; Streptococcus pyogenes (n = 100)): 0.06 to 2 µg/mL (≈ 0.166 to 5.53 µM)
- MIC [3, 13]: 0.25 to 1 µg/mL (≈ 0.692 to 2.77 µM)
- MIC50 [3, 13]: 0.25 µg/mL (≈ 0.692 µM)
- MIC90 [3, 13]: 0.25 µg/mL (≈ 0.692 µM)
- MIC [3, 14]: 0.25 to 2 µg/mL (≈ 0.692 to 5.53 µM)
- MIC50 [3, 14]: 0.25 µg/mL (≈ 0.692 µM)
- MIC90 [3, 14]: 0.25 µg/mL (≈ 0.692 µM)
- MIC ([3]; erythromycin resistant M phenotype (n = 20)): 0.06 to 1 µg/mL (≈ 0.166 to 2.77 µM)
- MIC ([3]; fully susceptible (n = 20)): 0.25 to 2 µg/mL (≈ 0.692 to 5.53 µM)
- MIC ([3]; multi-drug resistant (n = 20)): 0.25 to 1 µg/mL (≈ 0.692 to 2.77 µM)
- MIC [1, 11]: 0.03 to 0.5 mg/L (≈ 0.083 to 1.38 µM)
- MIC ([1]; read-out: MIC (mg/L) 50%): 0.06 mg/L (≈ 0.166 µM)
- MIC ([1]; read-out: MIC (mg/L) 90%): 0.06 mg/L (≈ 0.166 µM)
- MIC Range ([4]; Methicillin-resistant (38)): 0.25 to 128 µg/mL
- MIC Range ([4]; Methicillin-susceptible (9)): 0.125 to 1 µg/mL
- MIC50 ([4]; Staphylococcus aureus, Methicillin-resistant (38)): 8 µg/mL (≈ 22.1 µM)
- MIC90 ([4]; Staphylococcus aureus, Methicillin-susceptible (9), read-out: MIC90): 1 µg/mL (≈ 2.77 µM)
- MIC ([4]; Staphylococcus aureus, S. aureus KU2240, mutant type Wild (wild strain)): 0.25 µg/mL (≈ 0.692 µM)
- MIC ([4]; Staphylococcus aureus, S. aureus KU2243, mutant type G+T (DNA gyrase and topoisomerase IV)): > 128 µg/mL
- MIC ([4]; Staphylococcus aureus, S. aureus KU2245, mutant type G+T (DNA gyrase and topoisomerase IV)): 32 µg/mL (≈ 88.6 µM)
- MIC ([4]; Staphylococcus aureus, S. aureus KU2246, mutant type T (DNA topoisomerase IV)): 1 µg/mL (≈ 2.77 µM)
- MIC50 [5]: 0.063 µg/mL (≈ 0.174 µM)
- MIC90 [5]: 0.063 µg/mL (≈ 0.174 µM)
- MIC Range [5]: 0.031 to 0.063 µg/mL
- MIC50 [2, 12]: ≤ 0.015 µg/mL
- MIC Range [2, 12]: ≤0.015 to 0.5 µg/mL
- MIC90 [2, 12]: 0.03 µg/mL (≈ 0.083 µM)
- MIC90 ([2]; β-lactamase negative (234)): 0.03 µg/mL (≈ 0.083 µM)
- MIC90 ([2]; β-lactamase positive (66)): 0.03 µg/mL (≈ 0.083 µM)
- MIC ([6]; Staphylococcus aureus (n = 50)): 0.03 to 2 µg/mL (≈ 0.083 to 5.53 µM)
- MIC50 ([6]; Staphylococcus aureus (n = 50)): 1 µg/mL (≈ 2.77 µM)
- MIC90 ([6]; Staphylococcus aureus (n = 50)): 2 µg/mL (≈ 5.53 µM)
- MIC ([6]; β-lactamase negative (n = 20)): 0.03 to 2 µg/mL (≈ 0.083 to 5.53 µM)
- MIC50 ([6]; β-lactamase negative (n = 20)): 2 µg/mL (≈ 5.53 µM)
- MIC90 ([6]; β-lactamase negative (n = 20)): 2 µg/mL (≈ 5.53 µM)
- MIC ([6]; β-lactamase positive (n = 20)): 1 to 2 µg/mL (≈ 2.77 to 5.53 µM)
- MIC50 ([6]; β-lactamase positive (n = 20)): 1 µg/mL (≈ 2.77 µM)
- MIC90 ([6]; β-lactamase positive (n = 20)): 2 µg/mL (≈ 5.53 µM)
- MIC50 [6, 15]: 1 µg/mL (≈ 2.77 µM)
- MIC90 [6, 15]: 2 µg/mL (≈ 5.53 µM)
- MIC50 ([7]; Enterococcus faecium (n=39)): 32 µg/mL (≈ 88.6 µM)
- MIC90 ([7]; Enterococcus faecium (n=39)): 128 µg/mL (≈ 354 µM)
- MIC ([7]; Enterococcus faecium (vanA) vancomycin resistant, strain TMS1): 64 µg/mL (≈ 177 µM)
- MIC ([7]; Enterococcus faecium (vanA) vancomycin resistant, strain TMS2): 2 µg/mL (≈ 5.53 µM)
- MIC ([7]; Enterococcus faecium (vanA) vancomycin resistant, strain TMS3): 32 µg/mL (≈ 88.6 µM)
- MIC ([7]; Enterococcus faecium (vanA) vancomycin resistant, strain TMS4): 32 µg/mL (≈ 88.6 µM)
- MIC ([7]; Enterococcus faecium (vanA) vancomycin resistant, strain TMS5): 4 µg/mL (≈ 11.1 µM)
- MIC ([7]; Enterococcus laecium (van B) vancomycin resistant, strain TMS6): 32 µg/mL (≈ 88.6 µM)
- MIC ([7]; Enterococcus laecium (van B) vancomycin resistant, strain TMS7): 32 µg/mL (≈ 88.6 µM)
- MIC90 ([8]; Proteus mirabilis): 0.125 µg/mL (≈ 0.346 µM)
- MIC Range ([8]; Proteus mirabilis (n=30)): 0.032 to 2 µg/mL
- MIC50 ([8]; Proteus mirabilis (n=30), read-out: MIC50): 0.063 µg/mL (≈ 0.174 µM)
- Resistance (%) [9, 16]: 100%
- Resistance (%) [9, 17]: 0%
- MIC Range ([9]; Staphylococcus aureus (n = 80)): 0.06 to 8 µg/mL
- MIC90 [9, 16]: 8 µg/mL (≈ 22.1 µM)
- MIC90 [9, 17]: 0.25 µg/mL (≈ 0.692 µM)
- MIC90 ([9]; Staphylococcus aureus (n = 80)): 4 µg/mL (≈ 11.1 µM)
- MIC50 [10]: 0.063 µg/mL (≈ 0.174 µM)
- MIC90 [10]: 4 µg/mL (≈ 11.1 µM)
- MIC Range [10]: 0.016 to 16 µg/mL
